The source of these data is patent publication US20250154144A1 (CHILDREN'S HOSPITAL MEDICAL CENTER, priority 2021, published 2025).

The test system of assay [1] is MOLM14 F691L cells. Nature of the assay: cells. The format is cell-based. Particulars: Homo sapiens, MOLM-14, 48 h, 48 hours, Cell Titer Glo; read-out: MOLM14 F691L IC50. Background: ATP-based viability assays read luminescence as a measure of living cells.
Assay [2] has as its target T1, FLT3 (Homo sapiens, UniProt P36888).
T1 sequence (P36888 610-943 limits assumed): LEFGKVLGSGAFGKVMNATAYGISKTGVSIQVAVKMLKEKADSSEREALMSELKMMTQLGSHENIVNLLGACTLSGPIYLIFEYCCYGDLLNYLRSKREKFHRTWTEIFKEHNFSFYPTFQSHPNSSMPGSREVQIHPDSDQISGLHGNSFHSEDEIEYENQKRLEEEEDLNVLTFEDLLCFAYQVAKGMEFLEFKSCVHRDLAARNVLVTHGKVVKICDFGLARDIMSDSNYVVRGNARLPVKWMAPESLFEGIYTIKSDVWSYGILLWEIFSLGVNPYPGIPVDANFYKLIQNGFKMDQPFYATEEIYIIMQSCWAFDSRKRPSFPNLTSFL
Briefly: RBC HotSpot Kinase Assay, FLT3.

In assay [3] the target is T2, IRAK4 (Homo sapiens, UniProt Q9NWZ3).
T2 sequence (Q9NWZ3 1-460): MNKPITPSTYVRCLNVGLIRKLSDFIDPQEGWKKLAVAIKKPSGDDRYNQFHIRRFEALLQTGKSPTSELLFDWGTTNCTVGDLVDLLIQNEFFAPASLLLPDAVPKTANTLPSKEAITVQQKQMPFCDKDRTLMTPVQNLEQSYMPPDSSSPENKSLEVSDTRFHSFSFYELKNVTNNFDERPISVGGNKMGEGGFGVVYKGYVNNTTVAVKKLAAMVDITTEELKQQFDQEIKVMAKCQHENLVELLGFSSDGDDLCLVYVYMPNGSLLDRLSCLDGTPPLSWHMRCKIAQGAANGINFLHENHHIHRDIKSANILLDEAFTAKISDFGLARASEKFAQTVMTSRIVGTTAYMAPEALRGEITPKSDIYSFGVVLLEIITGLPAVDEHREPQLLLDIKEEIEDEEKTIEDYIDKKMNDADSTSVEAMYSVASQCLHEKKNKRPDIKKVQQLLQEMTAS
Nature of the assay: RBC HotSpot Kinase Assay, IRAK4. Particulars: IRAK4 IC50.

For assay [4], the target named is IRAK1 (Homo sapiens, UniProt P51617). Nature of the assay: DiscoverX KINOMEscan competition binding, IRAK1. Details: purchased RBC (Reaction Biology) HotSpot assay.
The target of assay [5] is T2, IRAK4. Nature of the assay: DiscoverX KINOMEscan competition binding, IRAK4. Details: purchased RBC (Reaction Biology) HotSpot assay.
The target of assay [6] is T3, FLT3 (Homo sapiens, UniProt P36888).
T3 sequence (P36888 27-993): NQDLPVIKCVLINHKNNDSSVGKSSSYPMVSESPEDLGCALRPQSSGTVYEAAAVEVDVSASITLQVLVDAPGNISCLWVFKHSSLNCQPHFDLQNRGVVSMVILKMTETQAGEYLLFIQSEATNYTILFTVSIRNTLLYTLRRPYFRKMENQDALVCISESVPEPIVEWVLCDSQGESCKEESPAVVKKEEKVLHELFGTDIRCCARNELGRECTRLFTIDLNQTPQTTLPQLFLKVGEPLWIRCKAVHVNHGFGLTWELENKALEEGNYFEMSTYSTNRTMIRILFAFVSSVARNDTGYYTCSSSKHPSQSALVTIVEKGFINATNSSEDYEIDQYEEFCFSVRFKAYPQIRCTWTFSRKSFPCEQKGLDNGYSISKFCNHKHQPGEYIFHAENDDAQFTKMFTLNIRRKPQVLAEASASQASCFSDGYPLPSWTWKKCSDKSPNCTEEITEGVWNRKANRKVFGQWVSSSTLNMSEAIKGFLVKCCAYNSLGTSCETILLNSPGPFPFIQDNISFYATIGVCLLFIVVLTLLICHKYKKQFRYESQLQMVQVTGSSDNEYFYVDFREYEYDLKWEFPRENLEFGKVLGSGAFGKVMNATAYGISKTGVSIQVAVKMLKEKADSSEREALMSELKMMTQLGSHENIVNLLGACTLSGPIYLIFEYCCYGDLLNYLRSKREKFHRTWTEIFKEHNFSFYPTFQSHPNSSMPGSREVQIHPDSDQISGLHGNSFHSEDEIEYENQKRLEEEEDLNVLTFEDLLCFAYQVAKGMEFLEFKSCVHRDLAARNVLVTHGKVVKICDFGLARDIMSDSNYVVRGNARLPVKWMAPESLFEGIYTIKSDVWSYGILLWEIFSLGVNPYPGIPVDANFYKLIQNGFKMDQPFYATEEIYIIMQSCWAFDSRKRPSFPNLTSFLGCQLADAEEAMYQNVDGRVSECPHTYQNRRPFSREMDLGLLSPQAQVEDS
Nature of the assay: Reaction Biology NanoBRET target engagement assay in HEK-293 cells, FLT3. (In general: BRET reads energy transfer from a luciferase to a nearby fluorophore.)

In assay [7] the target is T3, FLT3. Nature of the assay: DiscoverX KINOMEscan competition binding, FLT3. Further details: using full-length kinases in the presence of cellular concentrations of ATP in live, uncompromised cells.
Where [8] appears, read: NanoBRET FLT3 IC50, HEK-293 cells.

pIC50, pKd: −log10 of the molar value. Bounds are passed on as bounds.

Chain of IRAK1 (P51617 whole entry): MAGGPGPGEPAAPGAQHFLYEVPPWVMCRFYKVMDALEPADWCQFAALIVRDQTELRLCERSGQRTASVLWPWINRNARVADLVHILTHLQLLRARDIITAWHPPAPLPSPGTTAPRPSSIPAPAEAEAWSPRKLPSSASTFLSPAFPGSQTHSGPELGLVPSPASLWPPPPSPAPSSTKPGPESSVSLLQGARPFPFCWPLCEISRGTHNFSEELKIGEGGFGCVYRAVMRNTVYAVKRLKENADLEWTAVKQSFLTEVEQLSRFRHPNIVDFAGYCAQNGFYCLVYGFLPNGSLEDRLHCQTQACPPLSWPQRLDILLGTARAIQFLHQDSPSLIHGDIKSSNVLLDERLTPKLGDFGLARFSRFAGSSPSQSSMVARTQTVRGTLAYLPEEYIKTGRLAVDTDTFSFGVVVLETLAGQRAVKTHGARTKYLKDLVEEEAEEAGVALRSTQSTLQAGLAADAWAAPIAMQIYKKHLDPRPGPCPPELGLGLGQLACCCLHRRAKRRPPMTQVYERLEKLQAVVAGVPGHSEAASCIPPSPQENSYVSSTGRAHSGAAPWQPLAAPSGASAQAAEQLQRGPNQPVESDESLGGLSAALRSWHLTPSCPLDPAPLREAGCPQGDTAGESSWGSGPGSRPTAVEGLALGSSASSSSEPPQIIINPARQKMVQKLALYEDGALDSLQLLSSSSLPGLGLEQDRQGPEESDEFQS

What is called pIC50 is −log10 of the IC50, conventionally taken in molar units. As usually defined, the pKd is the Kd on a negative log10 scale, so that one unit is a factor of ten. Take `CC(O)(c1cn2c(-c3ccnc(N[C@H]4CNCC[C@@H]4F)n3)cnc2cn1)C(F)(F)F` (single isomer, unassigned) [Compound 72]: the pIC50 was 6.36 in assay [1], greater than 9.30 in assay [2] (read-out: FLT3 IC50), 9.15 in assay [3] and 6.00 in assay [6] (setting [8]). Further, the pKd was 8.82 in assay [4], 9.42 in assay [5] and 8.28 in assay [7].
As to `F[C@H]1CCNC[C@@H]1Nc1cncc(-c2cnc3cc(OC4CC4)ccn23)n1` [Compound 12, 6-(7-cyclopropoxyimidazo[1,2-a]pyridin-3-yl)-N-((3S,4S)-4-fluoropiperidin-3-yl)pyrazin-2-amine], the pIC50 in assay [1] was 7.07; in assay [2] (FLT3 IC50), greater than 9.30; in assay [3], 8.70; in assay [6] (setting [8]), 6.75. Further, the values for the pKd in assay [4], in assay [5] and in assay [7] were 8.12, 9.09 and 8.72, respectively.
Regarding `COc1cc2ncc(-c3cncc(N[C@H]4CNC[C@@H]4F)n3)n2nc1C1CC1` [Compound 22, 6-(6-cyclopropyl-7-methoxyimidazo[1,2-b]pyridazin-3-yl)-N-((3S,4S)-4-fluoropyrrolidin-3-yl)pyrazin-2-amine], the pIC50 was greater than 9.30 in assay [2] (FLT3 IC50), 9.00 in assay [3] and 6.49 in assay [6]. Also, the pKd in assay [4] was 8.19; in assay [5], 9.08; in assay [7] it was 8.74.
Regarding `COc1cc2ncc(-c3cncc(N[C@H]4CNCC[C@@H]4F)n3)n2nc1C1CC1` [Compound 24, 6-(6-cyclopropyl-7-methoxyimidazo[1,2-b]pyridazin-3-yl)-N-((3S,4S)-4-fluoropiperidin-3-yl)pyrazin-2-amine], the results for the pIC50 in assay [2] (FLT3 IC50), in assay [3] and in assay [6] (setting [8]) were greater than 9.30, 9.15 and 7.72, respectively. The pKd was 8.28 in assay [4], 9.66 in assay [5] and 9.72 in assay [7].
With `COc1cc2ncc(-c3ccnc(N[C@@H]4CCCNC4)n3)n2cc1C(C)(C)O` [Compound 44, (R)-2-(7-methoxy-3-(2-(piperidin-3-ylamino)pyrimidin-4-yl)imidazo[1,2-a]pyridin-6-yl)propan-2-ol], the pIC50 in assay [1] was 7.07; in assay [2] (FLT3 IC50), greater than 9.30; in assay [3], greater than 9.30; in assay [6] (setting [8]), 7.74. The pKd was 9.52 in assay [4], 10.14 in assay [5] and 9.55 in assay [7].
For the compound `COc1cc2ncc(-c3ccnc(N[C@H]4CNC[C@@H]4F)n3)n2nc1C1CC1` [Compound 49, 4-(6-cyclopropyl-7-methoxyimidazo[1,2-b]pyridazin-3-yl)-N-((3S,4S)-4-fluoropyrrolidin-3-yl)pyrimidin-2-amine], the pIC50 in assay [1] was 6.51; in assay [2] (FLT3 IC50), greater than 9.30; in assay [3] it was 9.00. The figures for the pKd in assay [4], in assay [5] and in assay [7] were 8.59, 9.25 and 9.59, respectively.
For the compound `COc1cc2ncc(-c3ccnc(N[C@@H]4CCCNC4)n3)n2nc1C1CC1` [Compound 50, (R)-4-(6-cyclopropyl-7-methoxyimidazo[1,2-b]pyridazin-3-yl)-N-(piperidin-3-yl)pyrimidin-2-amine], the pIC50 in assay [1] was 6.76; in assay [2] (FLT3 IC50), greater than 9.30; in assay [3], 8.40.
With `COc1cc2ncc(-c3ccnc(N[C@H]4CNCC[C@@H]4F)n3)n2nc1C1CC1` [Compound 51, 4-(6-cyclopropyl-7-methoxyimidazo[1,2-b]pyridazin-3-yl)-N-((3S,4S)-4-fluoropiperidin-3-yl)pyrimidin-2-amine], the pIC50 in assay [1] is 6.91; in assay [2] (FLT3 IC50), greater than 9.30; in assay [3], 9.22; in assay [6] (setting [8]), 8.05. Further, the pKd is 8.62 in assay [4], 9.24 in assay [5] and 9.66 in assay [7].
